In PMC6691587, “New CXCR1/CXCR2 inhibitors represent an effective treatment for kidney or head and neck cancers sensitive or refractory to reference treatments” (Theranostics, 2019):

What follows are compounds tested on Molm13 (assay: XTT cell viability assay, Molm13 AML cells). Details: Homo sapiens, MOLM-13, 48 h, SD 10%, mean of three experiments.
Assay type: cell-based, human
Protocol: (§1) Fifty microliters of sodium 3′-[1-phenylaminocarbonyl)-3,4-tetrazolium]-bis(4-methoxy-6-nitro) benzene sulfonic acid hydrate (XTT) reagent was added to each well. The assay is based on the cleavage of the yellow tetrazolium salt XTT to form an orange formazan dye by metabolically active cells. This bio-reduction occurs in viable cells only and is related to NAD(P)H production through glycolysis. Therefore, the amount of formazan dye measured at 490 nm directly correlated with the number of metabolically active cells reflecting cell proliferation and viability. Each assay was performed in quadruplicate.
`Cc1ccc(NC(=O)Nc2ccccc2Cl)cc1` [C1] gave an IC50 of over 25 µM.
Work on `Cc1ccc(NC(=O)Nc2cccc(Cl)c2)cc1` [C2] yielded an IC50 of over 25 µM.
`Cc1ccc(NC(=O)Nc2ccc(Cl)cc2)cc1` [C3] gave an IC50 of over 25 µM.
In the case of `O=C(Nc1ccccc1Cl)Nc1ccc(Cl)cc1Cl` [C4], the IC50 is reported as over 25 µM.
`O=C(Nc1cccc(Cl)c1)Nc1ccc(Cl)cc1Cl` [C5] was tested, and the IC50 was 20 µM.

What follows are compounds tested on Molm14 (assay: XTT cell viability assay, Molm14 AML cells). Details: Homo sapiens, MOLM-14, 48 h, SD 10%, mean of three experiments.
Assay type: cell-based, human
Protocol: as §1
`Cc1ccc(NC(=O)Nc2ccccc2Cl)cc1` [C1] was tested, and the IC50 was over 25 µM.
Work on `Cc1ccc(NC(=O)Nc2cccc(Cl)c2)cc1` [C2] yielded an IC50 of over 25 µM.
`Cc1ccc(NC(=O)Nc2ccc(Cl)cc2)cc1` [C3] showed an IC50 of over 25 µM.
For `O=C(Nc1ccccc1Cl)Nc1ccc(Cl)cc1Cl` [C4], the IC50 was over 25 µM.
`O=C(Nc1cccc(Cl)c1)Nc1ccc(Cl)cc1Cl` [C5] gave an IC50 of 25 µM.

The compounds below were run on RCC4 (assay: XTT cell viability assay, RCC4 RCC cells). Details: Homo sapiens, RCC4, 48 h, SD 10%, mean of three experiments, read-out: IC50 R4 (Kidney RCC).
Assay type: cell-based, human
Protocol: as §1
Compound `Cc1ccc(NC(=O)Nc2ccccc2Cl)cc1` [C1] has an IC50 of over 25 µM.
In the case of `Cc1ccc(NC(=O)Nc2cccc(Cl)c2)cc1` [C2], the IC50 is reported as over 25 µM.
`Cc1ccc(NC(=O)Nc2ccc(Cl)cc2)cc1` [C3] gave an IC50 of over 25 µM.
With `O=C(Nc1ccccc1Cl)Nc1ccc(Cl)cc1Cl` [C4] the IC50 was over 25 µM.
`O=C(Nc1cccc(Cl)c1)Nc1ccc(Cl)cc1Cl` [C5] was tested, and the IC50 was 20 µM.

Each compound was assayed on CAL33 (assay: XTT cell viability assay, CAL33 HNSCC cells). Details: Homo sapiens, CAL-33; XTT assay, 48 h; SD 10%; mean of three experiments; read-out: IC50 33 (HNSCC).
Assay type: cell-based, human
Protocol: as §1
For `Cc1ccc(NC(=O)Nc2ccccc2Cl)cc1` [C1], the IC50 was over 25 µM.
With `Cc1ccc(NC(=O)Nc2cccc(Cl)c2)cc1` [C2] the IC50 was over 25 µM.
With `Cc1ccc(NC(=O)Nc2ccc(Cl)cc2)cc1` [C3] the IC50 was over 25 µM.
`O=C(Nc1ccccc1Cl)Nc1ccc(Cl)cc1Cl` [C4] gave an IC50 of over 25 µM.
Compound `O=C(Nc1cccc(Cl)c1)Nc1ccc(Cl)cc1Cl` [C5] has an IC50 of 25 µM.

What follows are compounds tested on K562 (assay: XTT cell viability assay, K562 CML cells). Details: Homo sapiens, K562, 48 h, SD 10%, mean of three experiments.
Assay type: cell-based, human
Protocol: as §1
For `Cc1ccc(NC(=O)Nc2ccccc2Cl)cc1` [C1], the IC50 was over 25 µM.
In the case of `Cc1ccc(NC(=O)Nc2cccc(Cl)c2)cc1` [C2], the IC50 is reported as over 25 µM.
For `Cc1ccc(NC(=O)Nc2ccc(Cl)cc2)cc1` [C3], the IC50 was over 25 µM.
For `O=C(Nc1ccccc1Cl)Nc1ccc(Cl)cc1Cl` [C4], the IC50 was over 25 µM.
`O=C(Nc1cccc(Cl)c1)Nc1ccc(Cl)cc1Cl` [C5] showed an IC50 of 20 µM.

The compounds below were run on A498 (assay: XTT cell viability assay, A498 RCC cells). Details: Homo sapiens, A498; XTT assay, 48 h; SD 10%; mean of three experiments; read-out: IC50 498 (Kidney RCC).
Assay type: cell-based, human
Protocol: as §1
In the case of `Cc1ccc(NC(=O)Nc2ccccc2Cl)cc1` [C1], the IC50 is reported as over 25 µM.
For `Cc1ccc(NC(=O)Nc2cccc(Cl)c2)cc1` [C2], the IC50 was over 25 µM.
In the case of `Cc1ccc(NC(=O)Nc2ccc(Cl)cc2)cc1` [C3], the IC50 is reported as over 25 µM.
For `O=C(Nc1ccccc1Cl)Nc1ccc(Cl)cc1Cl` [C4], the IC50 was over 25 µM.
`O=C(Nc1cccc(Cl)c1)Nc1ccc(Cl)cc1Cl` [C5] was tested, and the IC50 was 22 µM.

What follows are compounds tested on OCI-AML3 (assay: XTT cell viability assay, OCI-AML3 AML cells). Details: Homo sapiens, OCI-AML-3, 48 h, SD 10%, mean of three experiments, read-out: IC50 L3 (AML).
Assay type: cell-based, human
Protocol: as §1
For `Cc1ccc(NC(=O)Nc2ccccc2Cl)cc1` [C1], the IC50 was over 25 µM.
For `Cc1ccc(NC(=O)Nc2cccc(Cl)c2)cc1` [C2], the IC50 was over 25 µM.
`Cc1ccc(NC(=O)Nc2ccc(Cl)cc2)cc1` [C3] showed an IC50 of over 25 µM.
`O=C(Nc1ccccc1Cl)Nc1ccc(Cl)cc1Cl` [C4] was tested, and the IC50 was over 25 µM.
In the case of `O=C(Nc1cccc(Cl)c1)Nc1ccc(Cl)cc1Cl` [C5], the IC50 is reported as 20 µM.

The compounds below were run on SKM1 (assay: XTT cell viability assay, SKM1 MDS cells). Details: Homo sapiens, SKM-1, 48 h, SD 10%, mean of three experiments, read-out: IC50 SK (MDS).
Assay type: cell-based, human
Protocol: as §1
In the case of `Cc1ccc(NC(=O)Nc2ccccc2Cl)cc1` [C1], the IC50 is reported as over 25 µM.
`Cc1ccc(NC(=O)Nc2cccc(Cl)c2)cc1` [C2] gave an IC50 of over 25 µM.
`Cc1ccc(NC(=O)Nc2ccc(Cl)cc2)cc1` [C3] gave an IC50 of over 25 µM.
Work on `O=C(Nc1ccccc1Cl)Nc1ccc(Cl)cc1Cl` [C4] yielded an IC50 of over 25 µM.
Compound `O=C(Nc1cccc(Cl)c1)Nc1ccc(Cl)cc1Cl` [C5] has an IC50 of 22 µM.

What follows are compounds tested on CAL27 (assay: XTT cell viability assay, CAL27 HNSCC cells). Details: Homo sapiens, CAL-27; XTT assay, 48 h; SD 10%; mean of three experiments; read-out: IC50 27 (HNSCC).
Assay type: cell-based, human
Protocol: as §1
`Cc1ccc(NC(=O)Nc2ccccc2Cl)cc1` [C1] was tested, and the IC50 was over 25 µM.
For `Cc1ccc(NC(=O)Nc2cccc(Cl)c2)cc1` [C2], the IC50 was over 25 µM.
Work on `Cc1ccc(NC(=O)Nc2ccc(Cl)cc2)cc1` [C3] yielded an IC50 of over 25 µM.
With `O=C(Nc1ccccc1Cl)Nc1ccc(Cl)cc1Cl` [C4] the IC50 was over 25 µM.
`O=C(Nc1cccc(Cl)c1)Nc1ccc(Cl)cc1Cl` [C5] gave an IC50 of 15 µM.

What follows are compounds tested on MDA-MD-231 (assay: XTT cell viability assay, breast cancer cells). Details: Homo sapiens, 48 h, SD 10%, mean of three experiments.
Assay type: cell-based, human
Protocol: as §1
Compound `Cc1ccc(NC(=O)Nc2ccccc2Cl)cc1` [C1] has an IC50 of over 25 µM.
`Cc1ccc(NC(=O)Nc2cccc(Cl)c2)cc1` [C2] gave an IC50 of over 25 µM.
For `Cc1ccc(NC(=O)Nc2ccc(Cl)cc2)cc1` [C3], the IC50 was over 25 µM.
`O=C(Nc1ccccc1Cl)Nc1ccc(Cl)cc1Cl` [C4] gave an IC50 of over 25 µM.
In the case of `O=C(Nc1cccc(Cl)c1)Nc1ccc(Cl)cc1Cl` [C5], the IC50 is reported as over 25 µM.

Each compound was assayed on 786-O (assay: XTT cell viability assay, 786-O RCC cells). Details: Homo sapiens, 786-0; XTT assay, 48 h; SD 10%; mean of three experiments; read-out: IC50 786 (Kidney RCC).
Assay type: cell-based, human
Protocol: as §1
In the case of `Cc1ccc(NC(=O)Nc2ccccc2Cl)cc1` [C1], the IC50 is reported as over 25 µM.
`Cc1ccc(NC(=O)Nc2cccc(Cl)c2)cc1` [C2] gave an IC50 of over 25 µM.
Compound `Cc1ccc(NC(=O)Nc2ccc(Cl)cc2)cc1` [C3] has an IC50 of over 25 µM.
`O=C(Nc1ccccc1Cl)Nc1ccc(Cl)cc1Cl` [C4] was tested, and the IC50 was over 25 µM.
`O=C(Nc1cccc(Cl)c1)Nc1ccc(Cl)cc1Cl` [C5] showed an IC50 of 22 µM.

What follows are compounds tested on OCI-AML2 (assay: XTT cell viability assay, OCI-AML2 AML cells). Details: Homo sapiens, OCI-AML2, 48 h, SD 10%, mean of three experiments, read-out: IC50 L2 (AML).
Assay type: cell-based, human
Protocol: as §1
`Cc1ccc(NC(=O)Nc2ccccc2Cl)cc1` [C1] showed an IC50 of over 25 µM.
Compound `Cc1ccc(NC(=O)Nc2cccc(Cl)c2)cc1` [C2] has an IC50 of over 25 µM.
Compound `Cc1ccc(NC(=O)Nc2ccc(Cl)cc2)cc1` [C3] has an IC50 of over 25 µM.
`O=C(Nc1ccccc1Cl)Nc1ccc(Cl)cc1Cl` [C4] showed an IC50 of over 25 µM.
`O=C(Nc1cccc(Cl)c1)Nc1ccc(Cl)cc1Cl` [C5] was tested, and the IC50 was 22 µM.
